From patent publication US11634624B2, “Surfactants for enhanced oil recovery” (MOL MAGYAR OLAJ- ÉS GÁZIPARI NYILVÁNOSAN MŰKÖDŐ …, priority 2018, dated 2023)

Tests used:
[1] = format: physicochemical
Text: For the test, the prepared surfactant solution samples were filled into a clean, dry cuvette and then scattered in a spectrophotometer at 500 nm wavelength using a nephelometric pad at ambient temperature. The turbidity of the sample to be tested is compared to the light scattering of pure water (0%) and the reference opal body (100%).

[2] = Interfacial tension (IFT), spinning drop; format: physicochemical; conditions: for IFT (mN/m), concentration 0.1 g/l / IFT (mN/m), concentration 1 g/l / IFT (mN/m), concentration 5 g/l: commercial surfactants; for IFT (mN/m) 0.1 g/l / IFT (mN/m) 1.0 g/l: 40° C., 4500 rpm
Description: The interfacial tension (IFT) in the following examples is measured in a spinning drop type tensile meter at 4500 rpm at 40° C. temperature. The test capillary was filled with various concentrations of surfactant solution into which a drop of oil of Algyő type oil was injected through a syringe. In steady state, the interfacial tension between the surfactant solution and the crude oil can be calculated based on the geometric dimensions of the droplet taken by the oil drop.

[3] = Thermal (heat/hydrolytic) stability, 90° C., 3 hours, transmittance; format: physicochemical; conditions: for Heat stability (90° C., 3 hours), appearance: appearance symbol; for Heat stability (90° C., 3 hours) (%): turbidity number
[4] = Oil solubility (turbidity of 1% in model oil); format: physicochemical; conditions: for Solubility in oil, appearance / dissolution: symbol or word
Description: In the course of the test, 0.2 g of the surfactant to be tested is weighed into 20 g of model oil and then dissolved for 1 hour at 60° C. with vigorous stirring. After cooling, the samples were poured into a clean, dry cuvette and then scattered at 500 nm with a spectrophotometer at ambient temperature. As reference, the light scattering of pure oil (0%) and standard opal body (100%) is used.

| Water solubility [1] [%] | Compound | Water solubility (%) [1] [%] | Water solubility, appearance [1] | IFT (mN/m), concentration 0.1 g/l [2] [mN/m] | IFT (mN/m), concentration 1 g/l [2] [mN/m] | IFT (mN/m), concentration 5 g/l [2] [mN/m] | IFT (mN/m) 0.1 g/l [2] [mN/m] | IFT (mN/m) 1.0 g/l [2] [mN/m] | Heat stability (90° C., 3 hours), appearance [3] | Heat stability (90° C., 3 hours) (%) [3] [%] | Solubility in oil, appearance / dissolution [4] | Solubility in oil (%) ([4]; turbidity number) |
| --- | --- | --- | --- | --- | --- | --- | --- | --- | --- | --- | --- | --- |
| 100 | 2-methylpentane-1,5-diammonium-bis(C14-C17 sec-alkylsulphonate) [Example 5] | 100 | m. | – | – | – | – | – | – | – | – | – |
| – | CCCCCCCCCCCCc1ccc(S(=O)(=O)[O-])cc1.[Na+] [DBSNa-salt 30% solution, Sodium salt of dodecylbenzylsulfonic acid, reference compound] | – | – | 0.34 | 0.63 | 0.88 | – | – | – | – | – | – |
| – | CCCCCCCCCCCCc1ccc(S(=O)(=O)O)cc1.CCCCCCCCCCCCc1ccc(S(=O)(=O)O)cc1.NCCCCCCN [Example 21] | 100 | m. | – | – | – | 0.019 | 0.015 | m. | 100 | n.o. | – |
| – | CCCCCCCCCCCCc1ccc(S(=O)(=O)O)cc1.CCCCCCCCCCCCc1ccc(S(=O)(=O)O)cc1.NCCCCN [Example 23] | 100 | m. | – | – | – | 0.120 | 0.170 | b. | 20 | n.o. | – |
| – | CCCCCCCCCCCCc1ccc(S(=O)(=O)O)cc1.CCCCCCCCCCCCc1ccc(S(=O)(=O)O)cc1.NCCCOCCCCOCCCN [Example 24] | 100 | m. | – | – | – | 0.042 | 0.103 | op. | 100 | op. | 18 |
| – | CCCCCCCCCCCCc1ccc(S(=O)(=O)O)cc1.CCCCCCCCCCCCc1ccc(S(=O)(=O)O)cc1.CN(C)CCCNCCCN(C)C.Cl [Example 38] | – | – | – | – | – | 0.15 | 0.16 | op. | 31 | – | – |
| – | CC(O)CO (stereo not drawn) [Propylene glycol, reference compound] | – | – | 11.53 | 16.14 | 15.4 | – | – | – | – | – | – |
| 4 | bis(C14-C17 sec-alkyl)-sulphonate-poly (propylene-glycol)-bis-(2-ammonium-propyl)-ether salt [Example 3] | – | – | – | – | – | – | – | – | – | – | – |
